Assay results published in patent US20080288176A1 (priority 2005, published 2008).

Columns and labels:
[1] = Hydrolysis in human intestinal microsomes; format: in vitro ADME; conditions: for intestinal microsomal activity: model input
Source text: (§1) The physiologically based pharmacokinetic/pharmacodynamic model of the present invention contains a series of compartments that describe the time course of a nonsteroidal anti-inflammatory prodrug, its active metabolites and nitric oxide release in intestine, liver, kidneys, blood/plasma and heart after prodrug administration. The time course of the prodrug, its active metabolites and nitric oxide release can be simulated using a series of in vitro and in silico inputs. The stability of each component in the gastrointestinal lumen is estimated using data collected from artificial gastric and intestinal juice. Intestinal metabolism is estimated using intestinal microsomes and absorption rate is estimated using permeability data collected from a cell monolayer such as Caco-2. Hepatic elimination is estimated using liver microsomes and stability in plasma is calculated using degradation of each component in the media. Plasma protein binding can either be measured using a standardized in vitro method or it can be estimated using an in silico method. The distribution of each component in various parts of the body is estimated using an in silico method. The rate of nitric oxide release is estimated using an in vitro endothelial cell model. The time course of prodrug, its active metabolites and nitric oxide can be simulated in human and animal using this physiologically based pharmacokinetic/pharmacodynamic model provided that the corresponding in vitro and in silico data are used as inputs.
The selection of in vitro tests is designed to provide parameters for the above mentioned model. The use of an inappropriate test would result in wrong predictions. For example, Knaus et al. (2005) used guinea pig serum and porcine esterases to hydrolyze their O^2-substituted diazeniumdiolate derivatives of ASPIRIN, as disclosed in U.S. Ser. No. 60/681,842. These tests provided very little information in terms of in vivo human NO-NSAID metabolism rate and the extent to which metabolic conversion to NO donor and NSAID occurred. […] The half-life values were less than one minute. Based on these observations, it has become apparent that prior to entering the systemic circulation, it is likely that the NO-NSAID would have been hydrolyzed in the enterocytes and little or no NO-NSAID would have been detected in the blood stream. Furthermore, the release of NO will commence immediately once the NO donor is detached from the NSAID.
(§2) Representative in vitro tests or in silico estimates include: (a) pKa estimation or measurement; (b) Log P measurement or in silico estimation; (c) Solubility in various physiological fluids; (d) Permeability. Caco-2 and/or NOVOKIN's proprietary animal and human cell lines can be used to obtain this parameter; (e) Metabolic rate in the intestine and liver. Human or animal intestinal microsomes, S9 fraction, and cytosol can be used for this purpose. Human or animal hepatocytes, liver microsomes, S9 fraction, and cytosol can also be used; (f) Hydrolysis in human or animal plasma; (g) Serum or plasma protein binding. It can be measured in vitro or estimated in silico; (h) The rate of NO release; (i) Existing pharmacokinetic and pharmacodynamic data of NSAID or a biocompatible agent; (j) Existing NO release rate of known diazeniumdiolate if applicable; (k) Stability in gastric and intestinal environment; and (l) In silico volume of distribution estimation.
Whenever in vitro estimate is attainable, the in vitro results will be used, for example, plasma protein binding. Methods reported by Bowalgaha & Miners (2001), Martignoni et al. (2006), Tong et al. (2001) and Thulesen et al. (1999) were used for in vitro and in vivo scale-up for clearance in the intestine, absorption rate constant and hepatic clearance. The simulation begins with no material in all compartments except for the initial bolus in one compartment (typically the stomach compartment). The simulation then estimates the changing distribution of the material with time.

male Wistar rats [2] = assay: Urine alanine aminopeptidase to creatinine ratio (proximal tubular kidney damage); format: in vivo, rat; conditions: for AAP/Cr (urine alanine aminopeptidase to creatinine), Mean: oral gavage, urine collected for 6 hours
Source text: Myocardial infarction and ischemic events in high risk patients led one of the most popular COX-2 inhibitors to its demise (Bresalier et al., 2005). Non-selective NSAIDS may also cause similar problems due to their ability to inhibit COX-2. […] Adenosine diphosphate (ADP) generation is an indicator of myocardial infarction which has no connection with the arachidonic acid cascade (Borna et al., 2005). […] Long term NSAID use has been linked to kidney damage and hypertension (Zafirovska et al., 1993). […] This was associated with an increase in the urine the ratio of alanine-amino-peptidase (AAP) and creatinine.
(§3) Table 1 is a summary of the protocol for a study which was conducted in male Wistar rats weighing 275-300 grams. The animals were allowed to acclimatize for at least five days prior to the commencement of the study. The study protocol was approved by the local animal ethics committee.
(§4) All test animals, housed in metabolic cages, had urine collected over wet ice for 6 hours after dosing. Aliquots of the urine from each animal were collected to determine creatinine concentration. The remainder of the urine was centrifuged at 1000 g for 10 minutes. The supernatant was collected and mixed with analytical grade ethylene glycol at a rate of 0.4 mL ethylene glycol per 1 mL urine supernatant. The ethylene glycol/urine mixture was stored at −80° C. until analysis.

[3] = in vitro; Knaus et al., 2005; cited from earlier work
[4] = Stability in gastric environment (gastric decay rate); format: in vitro ADME
Source text: as §1, §2

male Wistar rats [5] = assay: Gastric ulcer index after oral dosing; format: in vivo, rat; conditions: for Ulcer Indices, Mean: oral gavage, naproxen 250 mg/kg or molar equivalent (ROF 250 mg/kg), 6 h after dosing, mean aggregate gastric ulcer length; for Ulcerogenicity (in words): oral, 6 h
Procedure: as §3
The animals were fasted overnight prior to test substance administration. The test substance was administered orally by gavage on the morning of the study day. All test animals had blood collected during the test period in both EDTA (ethylenediaminetetraacetic acid) tubes and SST (Serum Separator Tubes) at 1, 3 and 6 hours after dosing. Blood was collected into EDTA tubes only at 1 and 3 hours by tail tip amputation. Volume of blood collected was between 0.5 and 1 mL at each of these collections. The final collection was by puncture of the abdominal vena cava under isoflurane general anesthesia. Final blood collection was targeted as follows: 1st EDTA #1—1.5 mL; 2nd SST—1.5 mL; 3rd EDTA #2—as much as possible.
Each animal from all groups underwent a full necropsy under the supervision of a board certified veterinary pathologist. The stomach of each rat was cut along the greater curvature, contents removed into a polypropylene (Falcon) tube, the mucosa rinsed with saline and any obvious ulcers or erosions were measured along the longest axis. This measurement was recorded for each ulcer or erosion observed in each stomach. The falcon tubes and their contents were frozen at −80° C. and shipped to Novokin on dry ice for analysis.
The aggregate length of all gastric ulcers found in a given animal was calculated. The mean aggregate ulcer length across animals in a group was calculated. This mean value was reported as the ulcer index for that group.
The ulcer index of each modified drug was compared with the ulcer index of its associated parent drug and the controls using analysis of variance and Duncan's multiple range test for pairwise comparisons. Statistical analysis was done using SAS® (SAS Institute Inc., Cary, N.C.).

male Wistar rats [6] = assay: Urine N-acetylglucosaminidase to creatinine ratio (distal tubule toxicity); format: in vivo, rat; conditions: oral gavage, urine collected for 6 hours
Procedure: as §3, §4

[7] = Hydrolysis in human plasma; format: in vitro ADME
Source text: as §1, with “The time course of prodrug, its active metabolites and nitric oxide can be simulated in human and animal using this physiologically based pharmacokinetic/pharmacodynamic model provided that the corresponding in vitro and in silico data are used as inputs.” left out

| plasma decay rate constant [7] [min⁻¹] | Structure (SMILES) | intestinal molar percent conversion to Naproxen [1] [%] | intestinal microsomal activity [1] [mL/min/organ] | AAP/Cr (urine alanine aminopeptidase to creatinine), Mean (male Wistar rats [2]) | NO generating capacity relative to AZD 3582 [3] [times] | gastric decay rate constant ([4]; Human) | gastric decay rate constant ([4]; Rat) | Ulcer Indices, Mean (male Wistar rats [5]) | Ulcerogenicity (in words) (male Wistar rats [5]) | Urine NAG/Cr values, Mean (male Wistar rats [6]) | Urine AAP/creatinine ratio change (in words) (male Wistar rats [2]) |
| --- | --- | --- | --- | --- | --- | --- | --- | --- | --- | --- | --- |
|  | COc1ccc2cc(C(C)C(=O)OCON=[N+]([O-])N3CCCC3)ccc2c1 (stereo not drawn) [PYRO-NO-NAP, pyrrolidino-diazeniumdiolate-naproxen] | 87 | 188 | 195.569 | 13 | 0 /mint | 0 /mint | 1.450 | not significantly different from vehicle | 21.515 |  |
| 1.0 | COc1ccc2cc([C@H](C)C(=O)OCCCCO[N+](=O)[O-])ccc2c1 [AZD 3582] |  | 554 | 403.400 |  | 0 /mint | 0 /mint | 3.444 | severely ulcerogenic | 27.439 | did cause an increase |
